Data reported in patent US20230203098A1, “HUMAN TRANSFERRIN RECEPTOR BINDING PEPTIDE” (priority 2020, published 2023).
Read-outs that look alike come from different tables or passages of the source. Blank lines part the entries; values can stand above or below the compound they belong to. Where a SMILES comes first, the peptide text is derived from it. Bridges are numbered along the chain shown (N, C = ends). [ ]: non-standard residue; d: D form. The star is where a group is joined. X2 = O=C(O)c1cc(C(=O)*)ccc1-c1c2ccc(=O)cc-2oc2cc(O)ccc12; PEG12 = NCCOCCOCCOCCOCCOCCOCCOCCOCCOCCOCCOCCOCCC(=O)O; NMePhe(3-Cl) = CN[C@@H](Cc1cccc(Cl)c1)C(=O)O; NMeW = CN[C@@H](Cc1c[nH]c2ccccc12)C(=O)O; X4 = O=C1C=CC(=O)N1CC1CCC(C(=O)*)CC1; NMeY = CN[C@@H](Cc1ccc(O)cc1)C(=O)O

Target: transferrin receptor (hTfR) (Homo sapiens, UniProt P02786)
Sequence (P02786 whole entry): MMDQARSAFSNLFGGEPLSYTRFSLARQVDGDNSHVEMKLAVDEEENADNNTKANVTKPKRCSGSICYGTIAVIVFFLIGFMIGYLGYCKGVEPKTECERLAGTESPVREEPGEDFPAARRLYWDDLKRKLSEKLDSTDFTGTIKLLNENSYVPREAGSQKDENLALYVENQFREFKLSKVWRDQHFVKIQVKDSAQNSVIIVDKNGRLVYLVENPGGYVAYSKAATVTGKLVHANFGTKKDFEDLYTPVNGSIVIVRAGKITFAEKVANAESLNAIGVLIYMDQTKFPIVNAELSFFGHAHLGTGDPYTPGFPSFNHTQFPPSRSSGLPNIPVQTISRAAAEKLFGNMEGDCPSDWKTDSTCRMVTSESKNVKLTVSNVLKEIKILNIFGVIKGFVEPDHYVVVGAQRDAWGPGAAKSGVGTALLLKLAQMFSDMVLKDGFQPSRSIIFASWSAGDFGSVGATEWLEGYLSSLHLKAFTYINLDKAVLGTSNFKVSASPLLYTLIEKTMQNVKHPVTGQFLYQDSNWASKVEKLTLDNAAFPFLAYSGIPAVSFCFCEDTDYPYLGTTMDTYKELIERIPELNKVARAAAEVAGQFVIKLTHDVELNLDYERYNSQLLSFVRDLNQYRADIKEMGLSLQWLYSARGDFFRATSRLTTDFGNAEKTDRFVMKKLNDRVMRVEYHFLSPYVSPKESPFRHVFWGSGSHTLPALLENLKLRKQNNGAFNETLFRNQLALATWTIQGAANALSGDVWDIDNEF
Test: Intermolecular interaction evaluation test between transferrin receptor (hTfR) and peptide by surface plasmon resonance (SPR)
Format: binding
Method in brief: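 hTfR captured on Ni-NTA chip then amine-coupled; peptides run single-cycle kinetics at 5–100 nM in 10 mM HEPES pH 8.0, 150 mM NaCl, 0.05% Tween 20, 0.1% BSA, 1.0% DMSO. KD from least-squares curve fitting of sensorgrams.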

[1] = SPR, linker and payload (FITC, VivoTag) conjugates, read-out: KD
[2] = SPR, peptides, linker-added peptides and FITC conjugates, Patent ID 203-230, read-out: KD
[3] = binding to hTfR by SPR, Table 2 peptides, read-out: KD value (SPR) class
[4] = surface plasmon resonance, hTfR, read-out: KD value for hTfR by SPR (class symbol)
[5] = hTfR binding by SPR, hTfR No. 894 variant peptides, linker-added peptides and payload conjugates (Table 2), read-out: KD value obtained from the SPR measurement

Structure (SMILES): CC[C@H](C)[C@@H]1NC(=O)[C@H](Cc2ccc(O)cc2)NC(=O)[C@H](Cc2ccc(O)cc2)NC(=O)[C@H](CC(N)=O)NC(=O)[C@H](Cc2c[nH]c3ccccc23)NC(=O)[C@H](C(C)C)NC(=O)[C@H](Cc2ccccc2)NC(=O)[C@H](C(C)C)NC(=O)[C@H](C)NC(=O)CSC[C@H](C(=O)NCCOCCOCCOCCOCCC(=O)N[C@@H](CNC(=O)c2ccc(-c3c4ccc(=O)cc-4oc4cc(O)ccc34)c(C(=O)O)c2)C(N)=O)NC(=O)[C@H](Cc2ccc(O)cc2)N(C)C(=O)[C@H](Cc2ccc(O)cc2)NC(=O)[C@H](CCCNC(=N)N)NC(=O)[C@H](CCCNC(=N)N)NC(=O)[C@H]([C@@H](C)CC)NC1=O [compound 160]
Kd [1]: 1 to 100 nM

Structure (SMILES): CC[C@H](C)[C@@H]1NC(=O)[C@H](Cc2ccc(OC)cc2)NC(=O)[C@H](Cc2ccc(O)cc2)NC(=O)[C@H](CC(N)=O)NC(=O)[C@H](Cc2c[nH]c3ccccc23)N(C)C(=O)[C@H](C(C)C)NC(=O)[C@H](Cc2cccc(Cl)c2)N(C)C(=O)[C@H](CCC(=O)O)NC(=O)[C@H](C)NC(=O)CSC[C@@H](C(N)=O)NC(=O)[C@H](Cc2ccc(O)cc2)N(C)C(=O)[C@H](Cc2ccccc2)NC(=O)[C@@H](CCCNC(=N)N)NC(=O)[C@H](CCCCN)NC(=O)[C@H]([C@@H](C)CC)NC1=O [compound 228] ({CH2CO}-AE[NMePhe(3-Cl)]V[NMeW]NYY(Me)IIK[dR]F[NMeY]C-NH2; thioether N-15)
Kd [2]: 1 to 100 nM

Structure (SMILES): CC[C@H](C)[C@@H]1NC(=O)[C@H](Cc2ccc(O)cc2)NC(=O)[C@H](Cc2ccc(O)cc2)NC(=O)[C@H](CC(N)=O)NC(=O)[C@H](Cc2c[nH]c3ccccc23)NC(=O)[C@H](C(C)C)NC(=O)[C@H](Cc2ccccc2)NC(=O)[C@H](C(C)C)NC(=O)[C@H](C)NC(=O)CSC[C@@H](C(=O)NCCOCCOCCOCCOCCOCCOCCOCCOCCOCCOCCOCCOCCC(=O)N[C@@H](CCCCNC(=O)c2ccc(-c3c4ccc(=O)cc-4oc4cc(O)ccc34)c(C(=O)O)c2)C(N)=O)NC(=O)[C@H](Cc2ccc(O)cc2)N(C)C(=O)[C@H](Cc2ccc(O)cc2)NC(=O)[C@H](CCCNC(=N)N)NC(=O)[C@H](CCCNC(=N)N)NC(=O)[C@H]([C@@H](C)CC)NC1=O [compound 147]
Kd [1]: < 1 nM

Structure (SMILES): CC[C@H](C)[C@@H]1NC(=O)[C@H](Cc2ccc(O)cc2)NC(=O)[C@H](Cc2ccc(O)cc2)NC(=O)[C@H](CC(N)=O)NC(=O)[C@H](Cc2c[nH]c3ccccc23)N(C)C(=O)[C@H](C(C)C)NC(=O)[C@H](Cc2ccccc2)NC(=O)[C@H](C(C)C)NC(=O)[C@H](C)NC(=O)CSC[C@@H](C(=O)NCCOCCOCCOCCOCCC(=O)N[C@@H](CNC(=O)c2ccc(-c3c4ccc(=O)cc-4oc4cc(O)ccc34)c(C(=O)O)c2)C(N)=O)NC(=O)[C@H](Cc2ccc(O)cc2)N(C)C(=O)[C@H](Cc2ccc(O)cc2)NC(=O)[C@H](CCCNC(=N)N)NC(=O)[C@H](CCCNC(=N)N)NC(=O)[C@H]([C@@H](C)CC)NC1=O [compound 163]
Kd [1]: 1 to 100 nM

Structure (SMILES): CC[C@H](C)[C@@H]1NC(=O)[C@H](Cc2ccc(OC)cc2)NC(=O)[C@H](Cc2ccc(O)cc2)NC(=O)[C@H](CC(N)=O)NC(=O)[C@H](Cc2c[nH]c3ccccc23)N(C)C(=O)[C@H](C(C)C)NC(=O)[C@H](Cc2cccc(Cl)c2)N(C)C(=O)[C@H](C(C)C)NC(=O)[C@H](C)NC(=O)CSC[C@@H](C(N)=O)NC(=O)[C@H](Cc2ccc(O)cc2)N(C)C(=O)[C@H](Cc2ccccc2)NC(=O)[C@@H](CCCNC(=N)N)NC(=O)C2(CCN(C)CC2)NC(=O)[C@H]([C@@H](C)CC)NC1=O [compound 364]
Kd [4]: 1 to 100 nM

Structure (SMILES): CC[C@H](C)[C@@H]1NC(=O)[C@H](Cc2ccc(O)cc2)NC(=O)[C@H](Cc2ccc(O)cc2)NC(=O)[C@H](CC(N)=O)NC(=O)[C@H](Cc2c[nH]c3ccccc23)NC(=O)[C@H](C(C)C)NC(=O)[C@H](Cc2ccccc2)NC(=O)[C@H](C(C)C)NC(=O)[C@H](C)NC(=O)CSC[C@@H](C(=O)NCCOCCOCCOCCOCCOCCOCCOCCOCCOCCOCCOCCOCCC(=O)N[C@@H](CCCCNC(=O)c2ccc(-c3c4ccc(=O)cc-4oc4cc(O)ccc34)c(C(=O)O)c2)C(N)=O)NC(=O)[C@H](Cc2ccc(O)cc2)N(C)C(=O)[C@H](CO)NC(=O)[C@H](CCCNC(=N)N)NC(=O)[C@H](Cc2ccccc2)NC(=O)[C@H](CCCNC(=N)N)NC(=O)[C@H](CC(=O)O)NC(=O)[C@H]([C@@H](C)CC)NC1=O [compound 150] ({CH2CO}-AVFVWNYYIIDRFRS[NMeY]C[PEG12]K(X2)-NH2; thioether N-17)
Kd [1]: 1 to 100 nM

Structure (SMILES): CC[C@H](C)[C@@H]1NC(=O)[C@H](Cc2ccc(O)cc2)NC(=O)[C@H](Cc2ccc(O)cc2)NC(=O)[C@H](CC(N)=O)NC(=O)[C@H](Cc2c[nH]c3ccccc23)NC(=O)[C@H](C(C)C)NC(=O)[C@H](Cc2ccccc2)N(C)C(=O)[C@H](C(C)C)NC(=O)[C@H](C)NC(=O)CSC[C@@H](C(=O)NCC(=O)NCC(=O)N[C@@H](CO)C(=O)N[C@@H](CCCCNC(=O)C2CCC(CN3C(=O)C=CC3=O)CC2)C(N)=O)NC(=O)[C@H](Cc2ccc(O)cc2)N(C)C(=O)[C@H](Cc2ccc(O)cc2)NC(=O)[C@H](CCCNC(=N)N)NC(=O)[C@H](CCCNC(=N)N)NC(=O)[C@H]([C@@H](C)CC)NC1=O (some centres unmarked) [compound 194]
Kd [5]: 1 to 100 nM

Structure (SMILES): CC[C@H](C)[C@@H]1NC(=O)[C@H](Cc2ccc(OC)cc2)NC(=O)[C@H](Cc2ccc(O)cc2)NC(=O)[C@H](CC(N)=O)NC(=O)[C@H](Cc2c[nH]c3ccccc23)NC(=O)[C@H](C(C)C)NC(=O)[C@H](Cc2cccc(Cl)c2)N(C)C(=O)[C@H](CCC(=O)O)NC(=O)[C@H](C)NC(=O)CSC[C@@H](C(=O)NCC(=O)NCC(=O)N[C@@H](CO)C(=O)NCC(=O)N[C@@H](CO)C(=O)NCC(=O)N[C@@H](CCCCNC(=O)C2CCC(CN3C(=O)C=CC3=O)CC2)C(N)=O)NC(=O)[C@H](Cc2ccc(O)cc2)N(C)C(=O)[C@H](Cc2ccccc2)NC(=O)[C@@H](CCCNC(=N)N)NC(=O)[C@H](CCCNC(=N)N)NC(=O)[C@H]([C@@H](C)CC)NC1=O (some centres unmarked) [compound 222] ({CH2CO}-AE[NMePhe(3-Cl)]VWNYY(Me)IIR[dR]F[NMeY]CGGSGSGK(X4)-NH2; thioether N-15)
Kd [2]: 1 to 100 nM

Structure (SMILES): CC[C@H](C)[C@@H]1NC(=O)[C@H](Cc2ccc(O)cc2)NC(=O)[C@H](Cc2ccc(O)cc2)NC(=O)[C@H](CC(N)=O)NC(=O)[C@H](Cc2c[nH]c3ccccc23)NC(=O)[C@H](C(C)C)NC(=O)[C@H](Cc2cccc(Cl)c2)N(C)C(=O)[C@H](C(C)C)NC(=O)[C@H](C)NC(=O)CSC[C@@H](C(N)=O)NC(=O)[C@H](Cc2ccc(O)cc2)N(C)C(=O)[C@H](Cc2ccccc2)NC(=O)[C@H](CCCCN)NC(=O)[C@H](CC(=O)O)NC(=O)[C@H]([C@@H](C)CC)NC1=O [compound 307]
Kd (surface plasmon resonance, peptide vs hTfR, read-out: KD value, hTfR binding by SPR (class symbol)): 1 to 100 nM

Continued, values first:

Kd [3]: 1 to 100 nM
Structure (SMILES): CC[C@H](C)[C@@H]1NC(=O)[C@H](Cc2ccc(O)cc2)NC(=O)[C@H](Cc2ccc(O)cc2)NC(=O)[C@H](CC(N)=O)NC(=O)[C@H](Cc2c[nH]c3ccccc23)NC(=O)[C@H](C(C)C)NC(=O)[C@H](Cc2ccccc2)NC(=O)[C@H](CCCNC(=N)N)NC(=O)[C@H](C)NC(=O)CSC[C@@H](C(N)=O)NC(=O)[C@H](Cc2ccc(O)cc2)N(C)C(=O)[C@H](Cc2ccc(O)cc2)NC(=O)[C@H](CCCNC(=N)N)NC(=O)[C@H](CCCNC(=N)N)NC(=O)[C@H]([C@@H](C)CC)NC1=O [compound 237]

Kd [4]: 1 to 100 nM
Structure (SMILES): CC[C@H](C)[C@@H]1NC(=O)[C@H](Cc2ccc(O)cc2)NC(=O)[C@H](Cc2ccc(O)cc2)NC(=O)[C@H](CC(N)=O)NC(=O)[C@H](Cc2c[nH]c3ccccc23)NC(=O)[C@H](C(C)C)NC(=O)[C@H](Cc2ccccc2)NC(=O)[C@H](C(C)C)NC(=O)[C@H](C)NC(=O)CCC[C@@H](C(N)=O)NC(=O)[C@H](Cc2ccc(O)cc2)N(C)C(=O)[C@H](Cc2ccc(O)cc2)NC(=O)[C@H](CCCNC(=N)N)NC(=O)[C@H](CCCNC(=N)N)NC(=O)[C@H]([C@@H](C)CC)NC1=O [compound 408]

Kd [5]: 1 to 100 nM
Structure (SMILES): CC[C@H](C)[C@@H]1NC(=O)[C@H](Cc2ccc(O)cc2)NC(=O)[C@H](Cc2ccc(O)cc2)NC(=O)[C@H](CC(N)=O)NC(=O)[C@H](Cc2c[nH]c3ccccc23)NC(=O)[C@H](C(C)C)NC(=O)[C@H](Cc2ccccc2)N(C)C(=O)[C@H](C(C)C)NC(=O)[C@H](C)NC(=O)CSC[C@@H](C(=O)NCC(=O)N[C@@H](CCCCNC(=O)C2CCC(CN3C(=O)C=CC3=O)CC2)C(N)=O)NC(=O)[C@H](Cc2ccc(O)cc2)N(C)C(=O)[C@H](Cc2ccc(O)cc2)NC(=O)[C@H](CCCNC(=N)N)NC(=O)[C@H](CCCNC(=N)N)NC(=O)[C@H]([C@@H](C)CC)NC1=O (some centres unmarked) [compound 188]

Kd [3]: 1 to 100 nM
Structure (SMILES): CC[C@H](C)[C@@H]1NC(=O)[C@H](Cc2ccc(OC)cc2)NC(=O)[C@H](Cc2ccc(O)cc2)NC(=O)[C@H](CC(N)=O)NC(=O)[C@H](Cc2c[nH]c3ccccc23)N(C)C(=O)[C@H](C(C)C)NC(=O)[C@H](Cc2cccc(Cl)c2)N(C)C(=O)[C@H](CCCCNC(=N)N)NC(=O)[C@H](C)NC(=O)CSC[C@@H](C(N)=O)NC(=O)[C@H](Cc2ccc(O)cc2)N(C)C(=O)[C@H](Cc2ccccc2)NC(=O)[C@@H](CCCNC(=N)N)NC(=O)[C@H](CCCNC(=N)N)NC(=O)[C@H]([C@@H](C)CC)NC1=O [compound 242]

Kd (SPR, hTfR, class symbols A-D, read-out: KD (column without head, continuation of the table series)): 100 to 1000 nM
Structure (SMILES): CC[C@H](C)[C@@H]1NC(=O)[C@H](Cc2ccc(OCCN)cc2)NC(=O)[C@H](Cc2ccc(O)cc2)NC(=O)[C@H](CC(N)=O)NC(=O)[C@H](Cc2c[nH]c3ccccc23)NC(=O)[C@H](C(C)C)NC(=O)[C@H](Cc2ccccc2)N(C)C(=O)[C@H](C(C)C)NC(=O)[C@H](C)NC(=O)CSC[C@@H](C(N)=O)NC(=O)[C@H](Cc2ccc(O)cc2)N(C)C(=O)[C@H](Cc2ccccc2)NC(=O)[C@@H](CCCNC(=N)N)NC(=O)[C@H](CCCNC(=N)N)NC(=O)[C@H]([C@@H](C)CC)NC1=O [compound 523]
